Assay results reported in PubChem BioAssay (NCI).
“And” between values parts separate entries of the source, which are not always exact repeats. Equal entries are not always repeated.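 Five concentrations, 48 hours, 96-well plates. Abbreviation: GI50, concentration required for 50% inhibition of growth. TGI denotes the concentration required for complete inhibition of growth.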

How the values were obtained:
Assay in all cases: NCI tumour cell line growth inhibition, 48 h
[1] = test system: A549 NSCLC
[2] = test system: ACHN renal
[3] = test system: CAKI-1 renal
[4] = test system: COLO 205 colon
[5] = test system: DU-145 prostate
[6] = test system: EKVX NSCLC
[7] = test system: HCT-116 colon
[8] = test system: HCT-15 colon
[9] = test system: HOP-92 NSCLC
[10] = test system: HT29 colon
[11] = test system: IGROV1 ovarian
[12] = test system: KM12 colon
[13] = test system: M14 melanoma
[14] = test system: MDA-MB-231 breast
[15] = test system: MDA-MB-435
[16] = test system: NCI-H226 lung
[17] = test system: NCI-H23 lung
[18] = test system: NCI/ADR-RES ovarian
[19] = test system: OVCAR-3 ovarian
[20] = test system: OVCAR-4 ovarian
[21] = test system: OVCAR-5 ovarian
[22] = test system: OVCAR-8 ovarian
[23] = test system: PC-3 prostate
[24] = test system: RXF 393 renal
[25] = test system: SF-268 CNS
[26] = test system: SF-295 CNS
[27] = test system: SF-539 CNS
[28] = test system: SK-MEL-28 melanoma
[29] = test system: SK-MEL-5 melanoma
[30] = test system: SN12C renal
[31] = test system: SNB-19 CNS
[32] = test system: SNB-75 CNS
[33] = test system: SW-620 colon
[34] = test system: TK-10 renal
[35] = test system: U251 CNS
[36] = test system: UO-31 renal
[37] = test system: BT-549 breast
[38] = test system: UACC-257 melanoma
[39] = test system: 786-0 renal
[40] = test system: A498 renal
[41] = test system: CCRF-CEM leukemia
[42] = test system: HCC-2998 colon
[43] = test system: HL-60(TB) leukemia
[44] = test system: MALME-3M melanoma
[45] = test system: NCI-H460 lung
[46] = test system: NCI-H522 lung
[47] = test system: RPMI-8226 leukemia
[48] = test system: SK-MEL-2 melanoma
[49] = test system: SK-OV-3 ovarian
[50] = test system: UACC-62 melanoma

## CCC1(c2ccc(N3C(=O)c4ccccc4C3=O)cc2)CCC(=O)NC1=O (centres undefined)
[1]
  TGI: > 10000 nM
[2]
  TGI: > 10000 nM
[3]
  TGI: > 10000 nM
[4]
  TGI: > 10000 nM
[5]
  TGI: > 10000 nM
[6]
  TGI: > 10000 nM
[7]
  TGI: > 10000 nM
[8]
  TGI: > 10000 nM
[9]
  TGI: > 10000 nM
[10]
  TGI: > 10000 nM
[11]
  TGI: > 10000 nM
[12]
  TGI: > 10000 nM
[13]
  TGI: > 10000 nM
[14]
  TGI: > 10000 nM
[15]
  TGI: > 10000 nM
[16]
  TGI: > 10000 nM
[17]
  TGI: > 10000 nM
[18]
  TGI: > 10000 nM
[19]
  TGI: > 10000 nM
[20]
  TGI: > 10000 nM
[21]
  TGI: > 10000 nM
[22]
  TGI: > 10000 nM
[23]
  TGI: > 10000 nM
[24]
  TGI: > 10000 nM
[25]
  TGI: > 10000 nM
[26]
  TGI: > 10000 nM
[27]
  TGI: > 10000 nM
[28]
  TGI: > 10000 nM
[29]
  TGI: > 10000 nM
[30]
  TGI: > 10000 nM
[31]
  TGI: > 10000 nM
[32]
  TGI: > 10000 nM
[33]
  TGI: > 10000 nM
[34]
  TGI: > 10000 nM
[35]
  TGI: > 10000 nM
[36]
  TGI: > 10000 nM

## COc1ccc(CC2C(=O)NC(C)C(=O)N(C)C3C(=O)N(C)C(Cc4ccc(O)c(c4)Oc4ccc(cc4)C3O)C(=O)NC(C)C(=O)NC(C)C(=O)N2C)cc1 (centres undefined) (tested in a mixture with another compound)
[37]
  TGI: 9.92 nM
[9]
  TGI: 37.2 nM
[16]
  TGI: 117 nM
[17]
  TGI: 51 nM
[38]
  TGI: 101 nM and 27.8 nM

## O=c1c2cc(F)ccc2sc2c(Nc3ccncc3)nc3ccccc3c12
[39]
  GI50: 1760 nM
  TGI: 3390 nM
[40]
  GI50: 1040 nM
  TGI: 2640 nM
[2]
  GI50: 1550 nM
  TGI: 3130 nM
[37]
  GI50: 3310 nM
  TGI: 16700 nM
[3]
  GI50: 1530 nM
  TGI: 3840 nM
[41]
  GI50: 860 nM
  TGI: 2920 nM
[4]
  GI50: 1700 nM
  TGI: 3940 nM
[5]
  GI50: 2490 nM
  TGI: 6270 nM
[42]
  GI50: 2670 nM
  TGI: 7970 nM
[7]
  GI50: 1450 nM
  TGI: 3130 nM
[8]
  GI50: 1650 nM
  TGI: 3320 nM
[43]
  GI50: 13700 nM
  TGI: 39800 nM
[10]
  GI50: 1880 nM
  TGI: 3730 nM
[11]
  GI50: 1550 nM
  TGI: 5550 nM
[12]
  GI50: 1870 nM
  TGI: 3930 nM
[13]
  GI50: 1570 nM
  TGI: 3010 nM
[44]
  GI50: 1740 nM
  TGI: 3420 nM
[14]
  GI50: 1300 nM
  TGI: 2670 nM
[15]
  GI50: 1900 nM
  TGI: 3670 nM
[16]
  GI50: 14500 nM
  TGI: 47800 nM
[17]
  GI50: 1710 nM
  TGI: 3800 nM
[45]
  GI50: 1770 nM
  TGI: 3620 nM
[46]
  GI50: 1910 nM
  TGI: 4820 nM
[18]
  GI50: 1940 nM
  TGI: 4470 nM
[19]
  GI50: 1840 nM
  TGI: 3880 nM
[20]
  GI50: 1700 nM
  TGI: 3530 nM
[21]
  GI50: 1660 nM
  TGI: 3110 nM
[22]
  GI50: 1780 nM
  TGI: 4250 nM
[47]
  GI50: 1750 nM
  TGI: 4430 nM
[24]
  GI50: 1700 nM
  TGI: 3410 nM
[25]
  GI50: 1910 nM
  TGI: 4560 nM
[26]
  GI50: 4120 nM
  TGI: 26700 nM
[27]
  GI50: 1720 nM
  TGI: 3290 nM
[48]
  GI50: 11200 nM
  TGI: 26500 nM
[28]
  GI50: 1990 nM
  TGI: 3840 nM
[29]
  GI50: 7290 nM
  TGI: 28200 nM
[49]
  GI50: 14200 nM
  TGI: 34400 nM
[30]
  GI50: 2160 nM
  TGI: 5930 nM
[32]
  GI50: 1100 nM
  TGI: 3640 nM
[33]
  GI50: 1500 nM
  TGI: 3160 nM
[38]
  GI50: 2340 nM
  TGI: 6170 nM
[50]
  GI50: 1790 nM
  TGI: 3740 nM
[36]
  GI50: 1110 nM
  TGI: 2500 nM

## C=C(CNCCc1ccc(O)cc1)[C@@H]1CC[C@]2(CO)CC[C@]3(C)[C@H](CC[C@@H]4[C@@]5(C)CCC(NCCc6ccc(O)cc6)C(C)(C)[C@@H]5CC[C@]43C)[C@@H]12 (some centres undefined)
[40]
  GI50: 1400 nM
  TGI: 2860 nM
[37]
  GI50: 1590 nM
  TGI: 3060 nM
[3]
  GI50: 1490 nM
  TGI: 2850 nM
[5]
  GI50: 1540 nM
  TGI: 3000 nM
[9]
  GI50: 667 nM
  TGI: 2180 nM
[15]
  GI50: 873 nM
  TGI: 2240 nM
[45]
  GI50: 191 nM
  TGI: 362 nM
[20]
  GI50: 1350 nM
  TGI: 2700 nM
[22]
  GI50: 1610 nM
  TGI: 4270 nM
[23]
  GI50: 884 nM
  TGI: 2350 nM
[27]
  GI50: 1310 nM
  TGI: 2600 nM
[49]
  GI50: 1770 nM
  TGI: 3260 nM
[32]
  GI50: 1250 nM
  TGI: 2540 nM
[33]
  GI50: 178 nM
  TGI: 352 nM
[50]
  GI50: 1720 nM
  TGI: 3260 nM
[36]
  GI50: 1160 nM
  TGI: 2440 nM
